From US20250257041A1, “INDUCERS OF INTEGRATED STRESS RESPONSE TO TREAT CANCER” (The Board of Regents of The University of Texas System, priority 2022, published 2025) come the findings set out here.

The test system of experiment [1] is HCT116 GCN2KO. Description: Proliferation of HCT116 cells with GCN2 knocked out (CRISPR), Cell TiterGlo. In kind it is cell-based, human. The following applies: Homo sapiens, HCT-116; HCT116 cells with GCN2 knocked out using CRISPR; read-out: HCT116 IC50 (uM) HCT116 − GCN2KO. On the procedure: Briefly, compounds were tested for their effect on proliferation of HCT116 colorectal cell lines using Cell TiterGlo (Promega). Each compound was tested in a 10-point dose response experiment in triplicate. Multiple values in the column titled HCT116 WT reflect separate independent experiments. The three columns titled “HCT116 WT (repeat)”, “HCT116-CGN2KO” and “HCT116 WT+ISRIB” provide data for selected compounds that were tested simultaneously under three conditions. The HCT116 WT column lists IC50 against the wild type HCT116 colorectal cancer cell line. The HCT116-CGN2KO lists IC50 data for cells in which one component of the integrated stress response, GCN2, has been knocked out using CRISPR technology.
In general terms: ATP-based viability assays read luminescence as a measure of living cells.

For experiment [2], the system named is HCT116 WT. Description: Proliferation of HCT116 colorectal cell line, Cell TiterGlo. In kind it is cell-based, human. The gist of the method: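 HCT116 colorectal cells, wild type, GCN2 CRISPR knockout, or wild type plus ISRIB; proliferation read by CellTiter-Glo luminescence. 10-point dose response in triplicate, IC50 reported; multiple values are independent experiments.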

The mark [3] stands for this setting: Homo sapiens, HCT-116, wild type HCT116, 10-point dose response in triplicate, multiple values = separate independent experiments, read-out: HCT116 IC50 (uM) HCT116 WT.
[4] abbreviates: Homo sapiens, HCT-116, wild type HCT116, tested simultaneously with GCN2KO and +ISRIB, read-out: HCT116 IC50 (uM) HCT116 WT (repeat).
[5] abbreviates: wild type HCT116, compound plus 10 nM of ISRIB, read-out: HCT116 IC50 (uM) HCT116 WT + ISRIB.

The structures appear in SMILES notation. Read-outs that look alike come from different tables or passages of the source.

As for `COc1ccccc1C(=O)Nc1ccc(-c2cc(NC(=O)c3ccccc3)n(C)n2)cc1` [SW389001, N-(4-(5-Benzamido-1-methyl-1H-pyrazol-3-yl)phenyl)-2-methoxybenzamide], the IC50 (usually the midpoint of a concentration-inhibition curve) in experiment [1] was 6.44 µM; in experiment [2] (setting [3]), 0.31 µM; in experiment [2] (setting [4]) it was 0.84 µM; in experiment [2] (setting [5]) it was 7 µM.
On the same counts, the results for `Cn1nc(-c2ccc(NC(=O)c3ccc(C(=O)c4ccccc4)cc3)cc2)cc1NC(=O)c1ccccc1` [SW389002, N-(4-(5-Benzamido-1-methyl-1H-pyrazol-3-yl)phenyl)-4-benzoylbenzamide] are 31.9 µM, 7.1 µM, 26.4 µM and 46.3 µM.
In the same order, the values of `Cn1nc(-c2ccc(NC(=O)c3cccc(C(=O)c4ccccc4)c3)cc2)cc1NC(=O)c1ccccc1` [SW389004, N-(4-(5-Benzamido-1-methyl-1H-pyrazol-3-yl)phenyl)-3-benzoylbenzamide] are 7.75 µM, 5.7 µM, 7.47 µM and 7.22 µM.
On the same counts, the results for `C#Cc1cccc(C(=O)Nc2cc(-c3ccc(NC(=O)c4ccccc4)cc3)nn2C)c1` [SW389005, N-(3-(4-Benzamidophenyl)-1-methyl-1H-pyrazol-5-yl)-3-ethynylbenzamide] are 2.97 µM, 0.313 µM, 0.33 µM and 2.96 µM.
Consider `COc1ccccc1C(=O)Nc1cc(-c2ccc(NC(=O)c3ccccc3)cc2)nn1C` [SW389006, N-(3-(4-Benzamidophenyl)-1-methyl-1H-pyrazol-5-yl)-2-methoxybenzamide], for which the IC50 is 2.34 µM in experiment [1], 1.23 µM in experiment [2] (setting [3]), 0.82 µM in experiment [2] (setting [4]) and 2.4 µM in experiment [2] (setting [5]).
On the same counts, the results for `C#Cc1ccc(C(=O)Nc2ccc(-c3cc(NC(=O)c4ccccc4)n(C)n3)cc2)cc1` [SW389007, N-(4-(5-Benzamido-1-methyl-1H-pyrazol-3-yl)phenyl)-4-ethynylbenzamide] are 5.22 µM, 2 µM, 4.8 µM and 4.42 µM.
Take `C#Cc1ccc(C(=O)Nc2cc(-c3ccc(NC(=O)c4ccccc4)cc3)nn2C)cc1` [SW389008, N-(3-(4-Benzamidophenyl)-1-methyl-1H-pyrazol-5-yl)-4-ethynylbenzamide]: the IC50 in experiment [1] was ≥ 50 µM; in experiment [2] (setting [3]) it was > 50 µM; in experiment [2] (setting [4]), ≥ 50 µM.
Turning to `C#CCOc1ccc(C(=O)c2ccc(C(=O)Nc3ccc(-c4cc(NC(=O)c5ccccc5)n(C)n4)cc3)cc2)cc1` [SW389010, N-(4-(5-Benzamido-1-methyl-1H-pyrazol-3-yl)phenyl)-4-(4-(prop-2-yn-1-yloxy)benzoyl)benzamide], the figures for the IC50 in experiment [1], in experiment [2] (setting [3]) and in experiment [2] (setting [4]) were 41.1 µM, 20 µM and 43.1 µM, respectively.
On the same counts, the results for `C#CCOc1ccc(C(=O)c2ccc(C(=O)Nc3cc(-c4ccc(NC(=O)c5ccccc5)cc4)nn3C)cc2)cc1` [SW389012, N-(3-(4-Benzamidophenyl)-1-methyl-1H-pyrazol-5-yl)-4-(4-(prop-2-yn-1-yloxy)benzoyl)benzamide] are 19.2 µM, > 50 µM and 7.01 µM.
For the compound `C#Cc1cccc(C(=O)Nc2ccc(-c3cc(NC(=O)c4ccccc4)n(C)n3)cc2)c1` [SW389013, N-(4-(5-Benzamido-1-methyl-1H-pyrazol-3-yl)phenyl)-3-ethynylbenzamide], the IC50 in experiment [1] worked out at 15.8 µM; in experiment [2] (setting [3]), 2.79 µM; in experiment [2] (setting [4]) it was 4.21 µM; in experiment [2] (setting [5]) it was 19.8 µM.
In the same order, the values of `C#CCOc1ccc(C(=O)c2cccc(C(=O)Nc3cc(-c4ccc(NC(=O)c5ccccc5)cc4)nn3C)c2)cc1` [SW389152, N-(3-(4-Benzamidophenyl)-1-methyl-1H-pyrazol-5-yl)-3-(4-(prop-2-yn-1-yloxy)benzoyl)benzamide] are 0.65 µM, 0.305 µM, 0.31 µM and 0.71 µM.
